From the supplement of paper PMC6045584
± gives the standard deviation of the averaged measurements.

Key:
RESVERATROL = compound: Oc1ccc(/C=C/c2cc(O)cc(O)c2)cc1 [RESVERATROL]; assay: surviving fraction relative to DMSO-only wells; higher = less growth inhibition; conditions: exposure time: 5 days
In short: (§1)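 Tumour cell lines were seeded in log phase at 250–500 cells per well into 384-well plates. Starting 24 hours later, inhibitors were present continuously for five days at 0.5, 1, 5, 10, 50, 100, 500 and 1000 nM. Surviving fraction, from CellTiter-Glo luminescence, is normalised to the median of DMSO-only wells. Three screens per line were required, with replicate Pearson r >0.7 and median Z' >0.3 for a line to be kept.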

VISMODEGIB = compound: CS(=O)(=O)c1ccc(C(=O)Nc2ccc(Cl)c(-c3ccccn3)c2)c(Cl)c1 [VISMODEGIB]; assay: as above; conditions: exposure time: 5 days
In short: as §1

Test System | surviving fraction (RESVERATROL; 0.5 nM) | surviving fraction (RESVERATROL; 1 nM) | surviving fraction (RESVERATROL; 5 nM) | surviving fraction (RESVERATROL; 10 nM) | surviving fraction (RESVERATROL; 50 nM) | surviving fraction (RESVERATROL; 100 nM) | surviving fraction (RESVERATROL; 500 nM) | surviving fraction (RESVERATROL; 1000 nM) | surviving fraction (VISMODEGIB; 0.5 nM) | surviving fraction (VISMODEGIB; 1 nM) | surviving fraction (VISMODEGIB; 5 nM) | surviving fraction (VISMODEGIB; 10 nM) | surviving fraction (VISMODEGIB; 50 nM) | surviving fraction (VISMODEGIB; 100 nM) | surviving fraction (VISMODEGIB; 500 nM) | surviving fraction (VISMODEGIB; 1000 nM)
JURKAT HAEMATOPOIETIC AND LYMPHOID TISSUE | 1.022 ± 0.0052 | 1.04 ± 0.022 | 1.02 ± 0.011 | 1.04 ± 0.033 | 0.985 ± 0.018 | 0.953 ± 0.011 | 1.02 ± 0.029 | 1.04 ± 0.039 | 1.09 ± 0.0025 | 1.09 ± 0.017 | 1.06 ± 0.017 | 1.1 ± 0.019 | 0.99 ± 0.016 | 1.04 ± 0.026 | 1.02 ± 0.032 | 1.05 ± 0.017
KPD BONE | 0.997 ± 0.054 | 1.03 ± 0.032 | 1.08 ± 0.04 | 1.09 ± 0.063 | 1.02 ± 0.017 | 1.08 ± 0.041 | 0.969 ± 0.044 | 1.05 ± 0.028 | 0.899 ± 0.045 | 0.946 ± 0.088 | 1.05 ± 0.078 | 1.01 ± 0.017 | 0.956 ± 0.012 | 1.05 ± 0.073 | 0.98 ± 0.039 | 0.933 ± 0.07
LM7 BONE | 1.05 ± 0.036 | 1.05 ± 0.025 | 1.1 ± 0.045 | 1.18 ± 0.061 | 1.07 ± 0.067 | 1.15 ± 0.054 | 1.04 ± 0.034 | 1.12 ± 0.048 | 0.92 ± 0.055 | 0.955 ± 0.02 | 1.56 ± 1 | 1.03 ± 0.037 | 0.865 ± 0.01 | 0.909 ± 0.067 | 0.849 ± 0.067 | 0.86 ± 0.085
LNCAP PROSTATE | 0.912 ± 0.051 | 0.987 ± 0.098 | 0.897 ± 0.11 | 0.775 ± 0.12 | 1.04 ± 0.16 | 0.919 ± 0.11 | 0.914 ± 0.08 | 0.956 ± 0.18 | 1.01 ± 0.17 | 0.95 ± 0.15 | 1.01 ± 0.13 | 1.02 ± 0.21 | 1.14 ± 0.11 | 1.08 ± 0.19 | 1.13 ± 0.13 | 1.08 ± 0.12
MCF7 BREAST | 0.91 ± 0.027 | 1.01 ± 0.074 | 0.927 ± 0.068 | 0.947 ± 0.03 | 0.951 ± 0.063 | 0.99 ± 0.016 | 1 ± 0.077 | 1.04 ± 0.031 | 0.898 ± 0.029 | 0.916 ± 0.059 | 0.874 ± 0.032 | 0.892 ± 0.097 | 0.883 ± 0.032 | 0.966 ± 0.043 | 0.913 ± 0.041 | 0.904 ± 0.037
MDAMB134 BREAST | 0.894 ± 0.15 | 1.02 ± 0.045 | 0.864 ± 0.11 | 0.811 ± 0.016 | 1.06 ± 0.14 | 1.04 ± 0.15 | 1.057 ± 0.0028 | 1.08 ± 0.048 | 0.848 ± 0.089 | 0.886 ± 0.14 | 0.878 ± 0.057 | 0.915 ± 0.062 | 0.687 ± 0.12 | 0.717 ± 0.093 | 0.625 ± 0.024 | 0.662 ± 0.11
MDAMB157 BREAST | 1.01 ± 0.061 | 1.06 ± 0.048 | 0.972 ± 0.057 | 1.1 ± 0.038 | 0.992 ± 0.025 | 1.07 ± 0.03 | 0.972 ± 0.095 | 1 ± 0.1 | 0.901 ± 0.11 | 0.943 ± 0.098 | 1.02 ± 0.04 | 0.966 ± 0.06 | 1.02 ± 0.11 | 1.13 ± 0.12 | 1.01 ± 0.049 | 0.977 ± 0.061
MDAMB231 BREAST | 0.97 ± 0.01 | 0.996 ± 0.013 | 0.9638 ± 0.0043 | 0.993 ± 0.016 | 0.9694 ± 0.0024 | 0.998 ± 0.012 | 0.993 ± 0.012 | 1.03 ± 0.053 | 0.9193 ± 0.003 | 0.942 ± 0.018 | 0.95 ± 0.019 | 0.96 ± 0.02 | 0.884 ± 0.014 | 0.9527 ± 0.0036 | 0.85 ± 0.025 | 0.8868 ± 0.0044
MDAMB361 BREAST | 0.839 ± 0.071 | 0.871 ± 0.11 | 0.894 ± 0.089 | 0.898 ± 0.079 | 0.948 ± 0.012 | 0.884 ± 0.021 | 0.949 ± 0.082 | 0.952 ± 0.17 | 0.83 ± 0.021 | 0.798 ± 0.039 | 0.829 ± 0.043 | 0.784 ± 0.051 | 0.571 ± 0.019 | 0.612 ± 0.093 | 0.583 ± 0.049 | 0.598 ± 0.032
MDAMB436 BREAST | 0.943 ± 0.049 | 1.01 ± 0.17 | 0.998 ± 0.2 | 1.01 ± 0.11 | 1.08 ± 0.21 | 0.993 ± 0.11 | 1.06 ± 0.15 | 1.07 ± 0.056 | 0.851 ± 0.041 | 0.865 ± 0.0089 | 0.873 ± 0.027 | 0.852 ± 0.071 | 0.891 ± 0.04 | 0.915 ± 0.056 | 0.751 ± 0.013 | 0.78 ± 0.045
MDAMB453 BREAST | 1.07 ± 0.059 | 1.06 ± 0.06 | 1.16 ± 0.022 | 1.11 ± 0.039 | 1.16 ± 0.05 | 1.12 ± 0.069 | 1.04 ± 0.058 | 1.09 ± 0.019 | 0.926 ± 0.025 | 0.966 ± 0.03 | 0.951 ± 0.021 | 1.03 ± 0.043 | 0.89 ± 0.047 | 0.954 ± 0.014 | 0.949 ± 0.027 | 0.9893 ± 0.0072
MDAMB468 BREAST | 1.05 ± 0.11 | 1.13 ± 0.08 | 1.06 ± 0.059 | 1.07 ± 0.05 | 1.02 ± 0.047 | 1.14 ± 0.037 | 1.07 ± 0.053 | 1.09 ± 0.06 | 1.02 ± 0.064 | 0.927 ± 0.056 | 0.996 ± 0.058 | 0.957 ± 0.085 | 0.908 ± 0.083 | 1.02 ± 0.076 | 0.944 ± 0.065 | 0.955 ± 0.1
MFM223 BREAST | 1.06 ± 0.062 | 1.45 ± 0.56 | 1.15 ± 0.042 | 1.46 ± 0.46 | 1.08 ± 0.086 | 1.08 ± 0.18 | 1.19 ± 0.046 | 1.08 ± 0.11 | 1.07 ± 0.11 | 1.1 ± 0.021 | 1.05 ± 0.058 | 1.14 ± 0.035 | 0.841 ± 0.08 | 0.875 ± 0.081 | 0.901 ± 0.068 | 0.853 ± 0.063
MG63 BONE | 1.01 ± 0.038 | 1.06 ± 0.048 | 1.07 ± 0.035 | 1.15 ± 0.021 | 1.04 ± 0.024 | 1.11 ± 0.029 | 1.03 ± 0.023 | 1.05 ± 0.031 | 0.925 ± 0.035 | 0.9747 ± 0.0063 | 0.982 ± 0.023 | 0.993 ± 0.026 | 0.983 ± 0.003 | 1.01 ± 0.02 | 0.905 ± 0.007 | 0.966 ± 0.026
MHM BONE | 0.997 ± 0.013 | 1.02 ± 0.015 | 1.03 ± 0.012 | 1.03 ± 0.018 | 1.06 ± 0.032 | 1.06 ± 0.049 | 0.998 ± 0.025 | 1.045 ± 0.0076 | 0.978 ± 0.04 | 1.018 ± 0.0098 | 1.04 ± 0.035 | 1.02 ± 0.027 | 1.04 ± 0.015 | 1.05 ± 0.017 | 1.04 ± 0.008 | 1.085 ± 0.0059
NCIH441 LUNG | 1.14 ± 0.074 | 1.08 ± 0.12 | 1.1 ± 0.099 | 1.18 ± 0.09 | 1.09 ± 0.029 | 1.15 ± 0.087 | 1.1 ± 0.025 | 1.17 ± 0.026 | 0.971 ± 0.018 | 1.02 ± 0.11 | 1.01 ± 0.032 | 1.05 ± 0.036 | 0.971 ± 0.041 | 0.945 ± 0.041 | 0.9667 ± 0.0045 | 1.03 ± 0.086
NOS1 BONE | 1.08 ± 0.18 | 0.975 ± 0.046 | 1.07 ± 0.028 | 1.137 ± 0.0086 | 1.21 ± 0.22 | 1.35 ± 0.13 | 1.16 ± 0.032 | 1.17 ± 0.053 | 1.09 ± 0.11 | 1.13 ± 0.13 | 1.1 ± 0.076 | 1.2 ± 0.065 | 0.926 ± 0.088 | 0.958 ± 0.049 | 0.819 ± 0.022 | 0.832 ± 0.04
NY BONE | 0.936 ± 0.024 | 0.976 ± 0.03 | 1.06 ± 0.022 | 1.06 ± 0.048 | 1.01 ± 0.035 | 1.05 ± 0.047 | 0.951 ± 0.0076 | 1.01 ± 0.054 | 0.955 ± 0.018 | 0.968 ± 0.033 | 0.977 ± 0.018 | 1.06 ± 0.027 | 0.993 ± 0.025 | 0.996 ± 0.016 | 0.932 ± 0.058 | 1.01 ± 0.041
OS25HAL BONE | 1.01 ± 0.026 | 1.11 ± 0.059 | 1.03 ± 0.032 | 0.996 ± 0.024 | 1.001 ± 0.0068 | 1.08 ± 0.04 | 1.03 ± 0.018 | 1.16 ± 0.027 | 1 ± 0.014 | 1 ± 0.033 | 0.9983 ± 0.009 | 0.998 ± 0.017 | 0.967 ± 0.019 | 0.98 ± 0.005 | 1.01 ± 0.048 | 1.02 ± 0.054
OSHN BONE | 1.02 ± 0.022 | 1.106 ± 0.0076 | 1.07 ± 0.017 | 1.099 ± 0.004 | 1.06 ± 0.026 | 1.13 ± 0.03 | 1.09 ± 0.02 | 1.11 ± 0.024 | 1.01 ± 0.022 | 1.03 ± 0.019 | 1.05 ± 0.013 | 1.059 ± 0.0084 | 0.955 ± 0.021 | 0.991 ± 0.024 | 0.963 ± 0.031 | 0.989 ± 0.025
